Measurements reported in US9937225B2, “Topical formulations and uses thereof” (OCULAR TECHNOLOGIES SARL, priority 2012, dated 2018).

Assay: Weight percent of compound 1001 loaded into mixed nanomicelles (entrapment, RP-HPLC)
Format: physicochemical
Settings: solvent evaporation, HCO-60 4 wt %, Octoxynol-40 0.01 wt %
Method: To determine the entrapment efficiency of the formulation, all the prepared formulations were subjected to entrapment efficiency test. Briefly, formulations were vortex mixed for homogeneity and 1 mL was transferred to a fresh (1.5 mL) eppendorf tube. Each formulation was lyophilized to obtain a solid at the bottom of eppendorf tube. The obtained solid was suspended in 1 mL of organic solvent (diethyl ether) to generate reverse micelles and release the drug into the external organic solvent. The organic solvent was evaporated overnight in speed vacuum. The resultant reversed micelles were resuspended in 1 mL of 2-propanol (dilution factor was taken into account) and further diluted to determine the concentration of compound 1001 entrapped in each micellar preparation with HPLC. The entrapment efficiency of the formulation was calculated with the following formula (wherein MNF=Mixed Nanomicellar Formulation): […]
In vitro analysis of compound 1001 was performed by a reversed phase high performance liquid chromatography (RP-HPLC) method with a Shimadzu HPLC pump (Shimadzu, Shimadzu Scientific instruments, Columbia, Md.), Alcott autosampler (model 718 AL), Shimadzu UV/Visible detector (Shimadzu, SPD-20A/20AV, USA), ODS column (5 μm, 150×4.6 mm) thermostated at 40°±1 C and Hewlett Packard HPLC integrator (Hewlett Packard, Palo Alto, Calif.). The mobile phase was comprised of methanol (MeOH), water and trifluoroacetic acid (TFA) (70:30:0.05% v/v) which was set at a flow rate of 0.5 mL/min. Detection wavelength was set at 272 nm. The sample tray temperature was maintained at 4° C. Calibration curve (0.5 to 5 μg/mL) for compound 1001 was prepared by making appropriate dilutions from the stock solution in 2-propanol. An injection volume of 10 μl was injected into the HPLC column for analysis. All the standards and samples prepared were stored at 4° C. before and during the analysis.
Mixed nanomicellar formulation encapsulating compound 1001 was prepared by solvent evaporation method in two steps: 1) Preparation of basic formulation and 2) rehydration. In step one, compound 1001, HCO-60 and octoxynol-40 were dissolved separately in 0.3 mL of ethyl acetate. These three solutions were mixed together in 15-mL centrifuge tube. The resultant mixture was vortexed to obtain a homogenous solution. Ethyl acetate solvent was removed with speed vacuum to obtain a solid thin film. The residue was kept overnight under high vacuum at room temperature to remove residual organic solvent. In step two, the resultant thin film was hydrated with 1 mL of double distilled deionized water by vortexing the solution. The rehydrated formulation was suspended in 2× phosphate buffer solution, (pH 6.5). It was filtered through 0.2 μm nylon filter membrane to remove the unentrapped drug aggregates and other foreign particulates. The entrapment of compound 1001 was determined by RP-HPLC following disruption of the micelles and solubilization of 1001 in the diluent (2-propanol) as described below
Weight percent of drug loaded into MNF was determined following the method for entrapment efficiency. Size and polydispersity index of the formulations was determined with Malvern zetasizer as described above. The formulations appear clear and have small size and narrow size distribution.

SMILES: C#CC[C@@H](O)/C=C/C=C/C#C[C@@H](O)CCCC(=O)OC(C)C [compound 1001]
- 1001 (loaded in mixed micelles) wt % (1001 initially added 0.035 wt %): 0.033 wt %
- 1001 (loaded in mixed micelles) wt % (1001 initially added 0.070 wt %): 0.065 wt %
- 1001 (loaded in mixed micelles) wt % (1001 initially added 0.095 wt %): 0.084 wt %
- 1001 (loaded in mixed micelles) wt % (1001 initially added 0.120 wt %): 0.11 wt %
- 1001 (loaded in mixed micelles) wt % (1001 initially added 0.250 wt %): 0.26 wt %
- 1001 (loaded in mixed micelles) wt % (1001 initially added 0.300 wt %): 0.32 wt %
- 1001 (loaded in mixed micelles) wt % (1001 initially added 0.400 wt %): 0.45 wt %
